Drawing on US7994161B2, “Derivatives of 2-alkoxy-3,4,5-trihydroxy-alkyl amides, preparation and use thereof, and compositions containing the same” (Sanofi-Aventis, priority 2006, dated 2011), this text covers IC50 and Papp for five compounds.

pIC50: −log10 of the molar value.

One data set relates to HCT116 cells. Nature of the data set: Antiproliferative activity: inhibition of cellular proliferation of HCT116 cells (14C-thymidine incorporation). The class given is cell-based. The settings on record: Homo sapiens, HCT-116, 96 hours. The protocol: The antiproliferative activity of the products of the examples of Table 1 was determined by measuring the inhibition of the cellular proliferation of HCT116 cells.
The cells are inoculated into a cell culture medium at a concentration of 10 000 cells per well, in 0.17 mL of medium, and 20 μL of product to be tested, at various concentrations, and 10 μL of thymidine [methyl-14C] (100 μCi/ml—specific activity 47.90 mCi/mmol; NEN Technologies reference NEC568 batch 3550-001) are added, and then the cells are incubated at 37° C. and 5% CO2.
Medium used for the culture of HCT116 cells:DMEM medium 2 mM L-glutamine, 200 IU/ml penicillin, 200 μg/ml streptomycin and 10% (V/V) foetal calf serum (Life Technologies).
After 96 hours, the incorporation of ^14C-thymidine is counted in a Microbeta Wallac Trilux 1450 liquid scintillation counter. The results R are expressed in cpm (counts per minute) and converted to percentage growth inhibition GI % by first subtracting the mean of the number of cpm of the wells without B cells and by then dividing by the number of cpm of the wells of the untreated cells C comprising 20 μL of medium for dilution of the product containing 1% ethanol. (GI %=(R−B)×100/C %).
The IC50 values are calculated with the aid of the equation 205 of the XLFit software (IDBS company, UK) by non-linear regression analysis using the Marquardt algorithm (Donald W. MARQUARDT, J. Soc. industry. appl, vol 11, No. 2, June, 1963).
As a reminder, the pIC50 is −log10 of the IC50, conventionally taken in molar units. Consider `CO[C@@H](C(=O)NC1CN(C)c2ccccc2NC1=O)[C@H](O)[C@@H](O)[C@H](O)/C=C/C(C)(C)C` (stereo partly drawn) [Example 5, N-((S)-1-methyl-4-oxo-2,3,4,5-tetrahydro-1H-1,5-bezodiazepin-3-yl)-(E)-(2R,3R,4S,5R)-3,4,5-trihydroxy-2-methoxy-8,8-dimethylnon-6-enamide], for which the negative-log IC50 (pIC50) is 7.55.

`CO[C@@H](C(=O)N[C@H]1CNc2ccccc2N(C)C1=O)[C@H](O)[C@@H](O)[C@H](O)/C=C/C(C)(C)C` [Example 4, N-((S)-1-methyl-2-oxo-2,3,4,5-tetrahydro-1H-1,5-benzodiazepin-3-yl)-(E)-(2R,3R,4S,5R)-3,4,5-trihydroxy-2-methoxy-8,8-dimethylnon-6-enamide] gave a pIC50 of 7.35. Take `CO[C@@H](C(=O)N[C@H]1COc2ccccc2N(C)C1=O)[C@H](O)[C@@H](O)[C@H](O)/C=C/C(C)(C)C` [Example 2, N-((S)-9-methyl-8-oxo-6,7,8,9-tetrahydro-5-oxa-9-azabenzocyclohepten-7-yl)-(E)-(2R,3R,4S,5R)-3,4,5-trihydroxy-2-methoxy-8,8-dimethylnon-6-enamide]: the pIC50 is 7.49. `CO[C@@H](C(=O)N[C@H]1COc2ccccc2NC1=O)[C@H](O)[C@@H](O)[C@H](O)/C=C/C(C)(C)C` [Example 1, N-((S)-8-oxo-6,7,8,9-tetrahydro-5-oxa-9-azabenzocyclohepten-7-yl)-(E)-(2R,3R,4S,5R)-3,4,5-trihydroxy-2-methoxy-8,8-dimethylnon-6-enamide] showed a negative-log IC50 (pIC50) of 7.22. Still for that read-out and setting: under `CO[C@@H](C(=O)N[C@H]1CNc2ccccc2NC1=O)[C@H](O)[C@@H](O)[C@H](O)/C=C/C(C)(C)C` [Example 3, N-((S)-2-oxo-2,3,4,5-tetrahydro-1H-1,5-benzodiazepin-3-yl)-(E)-(2R,3R,4S,5R)-3,4,5-trihydroxy-2-methoxy-8,8-dimethylnon-6-enamide] stands 7.06.

Tested on in another data set: not listed separately
Briefly: in vitro. The conditions noted are these: human, Caco-2.
Broadly, the Papp is the rate of passage across a membrane or cell layer, normalised by area and donor concentration. Low readings indicate slow passage, high ones fast passage. On to `CO[C@@H](C(=O)N[C@H]1COc2ccccc2N(C)C1=O)[C@H](O)[C@@H](O)[C@H](O)/C=C/C(C)(C)C` [Example 2, N-((S)-9-methyl-8-oxo-6,7,8,9-tetrahydro-5-oxa-9-azabenzocyclohepten-7-yl)-(E)-(2R,3R,4S,5R)-3,4,5-trihydroxy-2-methoxy-8,8-dimethylnon-6-enamide], for which the Papp was determined as 5.2 ×10⁻⁶ cm/s.
